In the supplement of paper PMC13380429:
Counter-ions that a name gives are not always drawn. ± gives the standard deviation of the averaged measurements.

Key:
Conditions in all cases: 72 h
[1] = tested on: U2OS; experiment: relative viability EC50 (midpoint between 100% and the lowest measured viability); higher = less toxic
[2] = tested on: Vero E6; experiment: as above
[3] = tested on: Calu-3; experiment: as above
[4] = tested on: Caco-2; experiment: as above
[5] = tested on: U2OS; experiment: drug sensitivity score (DSS) for viability; higher = more toxic; extreme values may be limits of the assay
[6] = tested on: HepG2; experiment: as above
[7] = tested on: Vero E6; experiment: as above
[8] = tested on: Calu-3; experiment: as above
[9] = tested on: Caco-2; experiment: as above
[10] = tested on: U2OS; experiment: cell viability relative to DMSO; higher = less toxic
[11] = tested on: HepG2; experiment: as above
[12] = tested on: Vero E6; experiment: as above
[13] = tested on: Calu-3; experiment: as above
[14] = tested on: Caco-2; experiment: as above
[15] = tested on: HepG2; experiment: relative viability EC50 (midpoint between 100% and the lowest measured viability); higher = less toxic

| Structure (SMILES) | relative viability EC50 [1] [µM] | relative viability EC50 [2] [µM] | relative viability EC50 [3] [µM] | relative viability EC50 [4] [µM] | drug sensitivity score [5] | drug sensitivity score [6] | drug sensitivity score [7] | drug sensitivity score [8] | drug sensitivity score [9] | cell viability ([10]; 1 nM) [%] | cell viability ([10]; 10 nM) [%] | cell viability ([10]; 100 nM) [%] | cell viability ([10]; 1000 nM) [%] | cell viability ([10]; 10000 nM) [%] | cell viability ([11]; 1 nM) [%] | cell viability ([11]; 10 nM) [%] | cell viability ([11]; 100 nM) [%] | cell viability ([11]; 1000 nM) [%] | cell viability ([11]; 10000 nM) [%] | cell viability ([12]; 1 nM) [%] | cell viability ([12]; 10 nM) [%] | cell viability ([12]; 100 nM) [%] | cell viability ([12]; 1000 nM) [%] | cell viability ([12]; 10000 nM) [%] | cell viability ([13]; 1 nM) [%] | cell viability ([13]; 10 nM) [%] | cell viability ([13]; 100 nM) [%] | cell viability ([13]; 1000 nM) [%] | cell viability ([13]; 10000 nM) [%] | cell viability ([14]; 1 nM) [%] | cell viability ([14]; 10 nM) [%] | cell viability ([14]; 100 nM) [%] | cell viability ([14]; 1000 nM) [%] | cell viability ([14]; 10000 nM) [%] | relative viability EC50 [15] [µM] |
| --- | --- | --- | --- | --- | --- | --- | --- | --- | --- | --- | --- | --- | --- | --- | --- | --- | --- | --- | --- | --- | --- | --- | --- | --- | --- | --- | --- | --- | --- | --- | --- | --- | --- | --- | --- |
| COc1cc2c(cc1OC)C(c1ccc(N)cc1)=NNC(=O)C2 [CFM-2] | > 10 | > 10 | > 10 | > 10 | 0 | 0.8 | 0 | 0 | 0 | 97.1 | 98.2 | 95.4 | 95.5 | 87.1 | 109 | 97.2 | 104 | 113 | 71 | 98.7 | 93.8 | 96.6 | 96.1 | 100 | 95.5 | 100 | 98.3 | 112 | 101 | 93.1 | 102 | 98.7 | 95.5 | 98 |  |
| CN(C)C(=O)COC(=O)Cc1ccc(OC(=O)c2ccc(NC(=N)N)cc2)cc1 [Camostat mesylate] | > 10 | > 10 | > 10 |  | 0 | 0 | 0 | 0 |  | 104 | 107 | 97.4 | 100 | 99.4 | 102 | 96.2 | 97 | 100 | 103 | 95.9 | 105 | 88.8 | 102 | 100 | 99.8 | 97.1 | 104 | 91 | 97 |  |  |  |  |  | > 10 |
| Cn1nccc1Nc1nccc(-c2ccn([C@H](CO)c3ccc(Cl)c(F)c3)c(=O)c2)n1 [GDC-0994] | > 10 |  | > 10 | > 10 | 0 | 14.5 ± 0.28 | 2.6 ± 0.28 | 0 | 3.15 ± 2.6 | 96.9 ± 0.14 | 101.3 ± 0.99 | 92.2 ± 3.8 | 97.4 ± 0.85 | 96.8 ± 2.9 | 106.8 ± 0.57 | 96.8 ± 3 | 74.8 ± 3.2 | 38.2 ± 1.2 | 40.6 ± 3.4 | 104 ± 7.4 | 101 ± 3.4 | 101 ± 5.4 | 87.75 ± 0.35 | 70.9 ± 5.8 | 99.2 ± 6.9 | 103 ± 3 | 97.9 ± 7.3 | 96.45 ± 0.78 | 110 ± 4.3 | 97.6 ± 3.7 | 98.4 ± 3.1 | 87.8 ± 2.5 | 82.4 ± 5.8 | 79.9 ± 6.7 | 0.119 |
| COC[C@H](C)Oc1cc(O[C@@H](C)Cc2ccccc2)cc(C(=O)Nc2ccc(C(=O)O)cn2)c1 [GKA-50] | > 10 |  | > 10 | > 10 | 0 | 0 |  | 0 | 0 | 103 | 104 | 103 | 99.4 | 98.8 | 112 | 105 | 99.5 | 120 | 113 |  |  |  |  |  | 96.9 | 103 | 97.8 | 107 | 98.2 | 100 | 97 | 96.2 | 96.2 | 92.7 | > 10 |
| CCCCCCCCCCCCCCCc1cccc(OCC(=O)NCCO)c1 [PDP-EA] |  |  | > 10 | > 10 |  | 0 |  | 0 | 0 |  |  |  |  |  | 102 | 113 | 95.6 | 115 | 103 |  |  |  |  |  | 102 | 87.2 | 94.9 | 91.5 | 91.7 | 105 | 109 | 98.2 | 109 | 109 | > 10 |
| OC(c1ccc(-c2ccc(CN3CCN(Cc4ccncc4)CC3)cc2)c(F)c1)(C(F)(F)F)C(F)(F)F [SR-2211] | > 10 | > 10 | > 10 | > 10 | 0 | 2.9 | 0 | 0 | 2.4 | 98.4 | 106 | 102 | 102 | 95.7 | 94.2 | 101 | 98.8 | 95.4 | 58 | 103 | 99.8 | 103 | 100 | 103 | 101 | 101 | 93.6 | 95.9 | 95.5 | 113 | 95.4 | 101 | 86.4 | 76.1 |  |
| O=C1c2c(O)cccc2C([C@@H]2O[C@H](CO)[C@@H](O)[C@H](O)[C@H]2O)c2cc(CO)cc(O)c21 (stereo not given in full) [aloin] | > 10 |  | > 10 | > 10 | 0 | 0 |  | 0 | 0 | 96.9 | 100 | 92.9 | 97.4 | 92.7 | 106 | 94.1 | 103 | 94.7 | 103 |  |  |  |  |  | 104 | 95.7 | 103 | 104 | 97.3 | 92.1 | 104 | 96.6 | 93.9 | 99.4 | > 10 |
| COc1cc2c(Oc3ccc4[nH]c(C)cc4c3F)ccnc2cc1OCC1(N)CC1 [anlotinib] |  | > 10 | > 10 | > 10 | 2.4 | 1.8 | 0.5 | 0.2 | 1.8 | 95.1 | 102 | 96.9 | 99.4 | 54.7 | 106 | 99.6 | 101 | 103 | 59.2 | 91.2 | 98.6 | 97 | 95.2 | 84.4 | 94.8 | 93.4 | 99.3 | 100 | 84.5 | 91.7 | 93.8 | 94.4 | 87.4 | 76.2 |  |
